Experimental data published in patent US10683297B2 (Sunshine Lake Pharma Co., Ltd., priority 2017, dated 2020).

Legend:
[1] = Pharmacokinetics after intravenous and oral administration in rats; assay type: in vivo; conditions: for Clearance (CL) after iv dosing / AUC(0-t) / half-life / Vd: dose 1 mg/kg (Ex. 9: 0.6, Ex. 18: 0.5, Ex. 50: 0.96 mg/kg), iv dosing; for AUC(0-t) / half-life / Vd / bioavailability: rat, plasma; for Vd: read-out: Vss; for bioavailability: oral (generally 5 or 10 mg/kg) versus iv dosing, read-out: F (oral bioavailability)
Description: (§1) The LC/MS/MS system used in the analysis consists of an Agilent 1200 Series vacuum degasser, binary pump, well-plate autosampler, thermostatted column compartment, the Agilent G6430 Triple Quadrupole Mass Spectrometer with an electrosprayionization (ESI) source. Quantitative analysis was carried out using MRM mode. The parameters for MRM transitions are in the Table A.
(§2) An Agilent XDB-C18, 2.1×30 mm, 3.5 μM column was used for the analysis. 5 μL of the samples were injected. Analysis condition: The mobile phase was 0.1% formic acid in water (A) and 0.1% formic acid in methanol (B). The flow rate was 0.4 mL/min. And the gradient of Mobile phase was in the Table B.
(§3) Alternatively, an Agilent 6330 series LC/MS/MS spectrometer equipped with G1312A binary pumps, a G1367A autosampler and a G1314C UV detector were used in the analysis. An ESI source was used on the LC/MS/MS spectrometer. The analysis was done in positive ion mode as appropriate and the MRM transition for each analyte was optimized using standard solution. A Capcell MP-C18 100×4.6 mm I.D., 5 uM column (Phenomenex, Torrance, Calif., USA) was used during the analysis. The mobile phase was 5 mM ammonia acetate, 0.1% MeOH in water (A): 5 mM ammonia acetate, 0.1% MeOH in acetonitrile (B) (70/30, v/v). The flow rate was 0.6 mL/min. Column was maintained at ambient temperature. 20 μL of the samples were injected.
The compounds disclosed herein are assessed in pharmacokinetic studies in mice, rats, dogs or monkeys. The compounds are administered as a water solution, 2% HPMC+1% TWEEN®80 in water solution, 5% DMSO+5% solutol in saline, 4% MC suspension or capsule. For the intravenous administration, the animals are generally given at about 0.5, 0.6, 1 or 2 mg/kg dose. For the oral (p.o.) dosing, mice and rats are generally given 5 or 10 mg/kg dose, and dogs and monkeys are generally given 10 mg/kg dose. The blood samples (0.3 mL) are drawn at 0.25, 0.5, 1.0, 2.0, 3.0, 4.0, 6.0, 8.0, 12 and 24 h time points or 0.083, 0.25, 0.5, 1.0, 2.0, 4.0, 6.0, 8.0 and 24 h time points and centrifuged at 3,000 or 4000 rpm for 2 to 10 min. The plasma solutions are collected, and stored at […] until analyzed by LC/MS/MS as described above.

[2] = Compound stability in rat liver microsomes; assay type: in vitro ADME; conditions: for CLint scaled at 5 μM: liver microsomes, pH 7.4, in vivo CLint extrapolated from rat liver microsome incubation; for half-life at 5 μM: rat liver microsomes 0.5 mg protein/mL, compound 5 μM, NADPH 1.0 mM, pH 7.4, 37° C., read-out: Rat T1/2
Description: as §1, §2, §3
(§4) Human or rat liver microsomes incubations were conducted in duplicate in polypropylene tubes. The typical incubation mixtures consisted of human or rat liver microsomes (0.5 mg protein/mL), compounds of interest (5 μM) and NADPH (1.0 mM) in a total volume of 200 μL potassium phosphate buffer (PBS, 100 mM, pH 7.4). Compounds were dissolved in DMSO and diluted with PBS such that the final concentration of DMSO was 0.05%. The enzymatic reactions were commenced with the addition of […] after a 3-min preincubation and incubated in a water bath open to the air at 37° C. Reactions were terminated at various time points (0, 5, 10, 15, 30, 60 min) by adding equal volume of ice-cold acetonitrile. The samples were stored at […] until LC/MS/MS assays.
(§5) The concentrations of compounds in the incubation mixtures of human or rat liver microsomes were determined by a LC/MS/MS method. The ranges of the linearity in the concentration range were determined for each tested compounds.
(§6) A parallel incubation was performed using denatured microsomes as the negative control, and reactions were terminated at various time points (0, 15, 60 min) after incubation at 37° C.
(§7) Dextromethorphan (70 μM) was selected as the positive control, and reactions were terminated at various time points (0, 5, 10, 15, 30, 60 min) after incubation at 37° C. Both positive and negative control samples were included in each assay to ensure the integrity of the microsomal incubation system.
(§8) The concentrations of compounds in human or rat liver microsome incubations were plotted as a percentage of the relevant zero time point control for each reaction. The in vivo CLint were extrapolated (ref.: Naritomi, Y.; Terashita, S.; Kimura, S.; Suzuki, A.; Kagayama, A.; and Sugiyama, Y.; Prediction of human hepatic clearance from in vivo animal experiments and in vitro metabolic studies with liver microsomes from animals and humans. Drug Metab. Dispos., 2001, 29: 1316-1324).

[3] = Compound stability in human liver microsomes; assay type: in vitro ADME; conditions: for half-life at 5 μM: human liver microsomes 0.5 mg protein/mL, compound 5 μM, NADPH 1.0 mM, pH 7.4, 37° C., read-out: Human T1/2; for CLint scaled at 5 μM: liver microsomes, pH 7.4, in vivo CLint extrapolated from human liver microsome incubation
Description: as §1, §2, §3, §4, §5, §6, §7, §8

SMILES	Clearance (CL) after iv dosing [1]	AUC(0-t) [1]	half-life [1]	Vd [1]	bioavailability [1]	CLint scaled at 5 μM [2]	half-life at 5 μM [2]	half-life at 5 μM [3]	CLint scaled at 5 μM [3]
N#Cc1ccc(N2CCC(Nc3nc(Nc4cnn5ccnc5c4)ncc3Cl)CC2)nc1 [Example 18, 6-(4-((5-chloro-2-(imidazo[1,2-b]pyridazin-7-ylamino)pyrimidin-4-yl)amino)piperidin-1-yl)nicotinonitrile]	0.79 L/h/kg	638 ng·h/mL	35.4 min	0.5 L/kg	79.4%	–	–	–	–
CC(O)Cn1cnc2cc(Nc3ncc(Cl)c(NC4CCN(c5ccc(C#N)cn5)CC4)n3)cnc21 (stereo not shown) [Example 52, 6-(4-((5-chloro-2-((3-(2-hydroxypropyl)-3H-imidazo[4,5-b]pyridin-6-yl)amino)pyrimidin-4-yl)amino)piperidin-1-yl)nicotinonitrile]	0.91 L/h/kg	1090 ng·h/mL	51.6 min	0.96 L/kg	34.1%	85.1 mL/min/kg	29.2 min	47.8 min	36.4 mL/min/kg
CCC1CN(c2ccc(C#N)nn2)CCC1N(C)c1nc(Nc2ccn3c(C)cnc3c2)ncc1Cl (stereo not shown) [Example 11, 6-(4-((5-chloro-2-((3-methylimidazo[1,2-a]pyridin-7-yl)amino)pyrimidin-4-yl)(methyl)amino)-3-ethylpiperidin-1-yl)pyridazine-3-carbonitrile]	–	–	–	–	–	0.34 mL/min/kg	5050 min	330 min	5.26 mL/min/kg
CCC1CN(c2ccc(C#N)nn2)CCC1Nc1nc(Nc2ccn3c(C4CC4)cnc3c2)ncc1Cl (stereo not shown) [Example 15, 6-(4-((5-chloro-2-((3-cyclopropylimidazo[1,2-a]pyridin-7-yl)amino)pyrimidin-4-yl)amino)-3-ethylpiperidin-1-yl)pyridazine-3-carbonitrile]	–	–	–	–	–	834 mL/min/kg	2.98 min	22 min	78.9 mL/min/kg
Cc1cnc2cc(Nc3ncc(Cl)c(NC4CCN(c5ccc(C#N)cn5)CC4)n3)ccn12 [Example 23, 6-(4-((5-chloro-2-((3-methylimidazo[1,2-a]pyridin-7-yl)amino)pyrimidin-4-yl)amino)piperidin-1-yl)nicotinonitrile]	1.18 L/h/kg	844 ng·h/mL	63 min	1.68 L/kg	63%	–	–	–	–
CC(O)Cn1cnc2ncc(Nc3ncc(Cl)c(NC4CCN(c5ccc(C#N)cn5)CC4)n3)cc21 (stereo not shown) [Example 51, 6-(4-((5-chloro-2-((1-(2-hydroxypropyl)-1H-imidazo[4,5-b]pyridin-6-yl)amino)pyrimidin-4-yl)amino)piperidin-1-yl)nicotinonitrile]	–	–	–	–	–	73.1 mL/min/kg	34 min	31.6 min	54.9 mL/min/kg
CCC1CN(c2ccc(C#N)cn2)CCC1Nc1nc(Nc2ccn3ccnc3c2)ncc1Cl (stereo not shown) [Example 6, 6-(4-((5-chloro-2-(imidazo[1,2-a]pyridin-7-ylamino)pyrimidin-4-yl)amino)-3-ethylpiperidin-1-yl)nicotinonitrile]	0.38 L/h/kg	2690 ng·h/mL	283 min	0.76 L/kg	71%	–	–	–	–
CC(C)(O)c1nc2cc(Nc3ncc(Cl)c(NC4CCN(c5ccc(C#N)nn5)CC4F)n3)ccn2n1 (stereo not shown) [Example 88, 6-(4-((5-chloro-2-((2-(2-hydroxypropan-2-yl)-[1,2,4]triazolo[1,5-a]pyridin-7-yl)amino)pyrimidin-4-yl)amino)-3-fluoropiperidin-1-yl)pyridazine-3-carbonitrile]	1.05 L/h/kg	1460 ng·h/mL	32.3 min	0.688 L/kg	4.5%	13.2 mL/min/kg	188 min	4720 min	0.4 mL/min/kg
Cc1nc2cc(Nc3ncc(Cl)c(NC4CCN(c5ccc(C#N)nn5)CC4)n3)ccc2n1C [Example 49, 6-(4-((5-chloro-2-((1,2-dimethyl-1H-benzo[d]imidazol-5-yl)amino)pyrimidin-4-yl)amino)piperidin-1-yl)pyridazine-3-carbonitrile]	0.65 L/h/kg	1540 ng·h/mL	36 min	0.56 L/kg	79.6%	76.5 mL/min/kg	32.5 min	52.7 min	33 mL/min/kg
CCC1CN(c2ccc(C#N)nn2)CCC1Nc1nc(Nc2ccn3cnnc3c2)ncc1Cl (stereo not shown) [Example 7, 6-(4-((2-([1,2,4]triazolo[4,3-a]pyridin-7-ylamino)-5-chloropyrimidin-4-yl)amino)-3-ethylpiperidin-1-yl)pyridazine-3-carbonitrile]	–	–	–	–	–	112 mL/min/kg	22.2 min	148 min	11.7 mL/min/kg
Cc1cn2c(C)cnc2cc1Nc1ncc(Cl)c(NC2CCN(c3ccc(C#N)nn3)CC2)n1 [Example 22, 6-(4-((5-chloro-2-((3,6-dimethylimidazo[1,2-a]pyridin-7-yl)amino)pyrimidin-4-yl)amino)piperidin-1-yl)pyridazine-3-carbonitrile]	–	–	–	–	–	11.7 mL/min/kg	213 min	388 min	4.5 mL/min/kg
Cc1cn2ncc(Nc3ncc(Cl)c(NC4CCN(c5ccc(C#N)cn5)CC4)n3)cc2n1 [Example 37, 6-(4-((5-chloro-2-((2-methylimidazo[1,2-b]pyridazin-7-yl)amino)pyrimidin-4-yl)amino)piperidin-1-yl)nicotinonitrile]	0.69 L/h/kg	1460 ng·h/mL	55.8 min	0.83 L/kg	47.8%	–	–	–	–
CCC1CN(c2ccc(C#N)cn2)CCC1Nc1nc(Nc2ccn3c(C(C)(C)O)nnc3c2)ncc1Cl (stereo not shown) [Example 41]	–	–	–	–	–	57.9 mL/min/kg	42.9 min	198 min	8.8 mL/min/kg
CCC1CN(c2ccc(C#N)cn2)CCC1Nc1nc(Nc2ccn3cnnc3c2)ncc1Cl (stereo not shown) [Example 5, 6-(4-((2-([1,2,4]triazolo[4,3-a]pyridin-7-ylamino)-5-chloropyrimidin-4-yl)amino)-3-ethylpiperidin-1-yl)nicotinonitrile]	0.43 L/h/kg	2340 ng·h/mL	265 min	0.56 L/kg	42.7%	–	–	–	–
